The source of these data is patent publication US8193245B2, “Composition comprising oleic acid and the use thereof” (University-Industry Cooperation Group of Kyung Hee …, priority 2005, dated 2012).

Series [1] concerns neuronal cell injury caused by focal cerebral ischemia. Description: Neuroprotective activity, middle cerebral artery occlusion (intraluminal suture) with TTC staining. It is filed as in vivo, Sprague-Dawley rats.
For a further series, the system named is ICR mice. In words: Acute toxicity test on ICR mice. It is filed as in vivo. Here is the method:
(§1) The acute toxicity tests on ICR mice (mean body weight 25±5 g) and Sprague-Dawley rats (300±10 g, Jung-Ang Lab Animal Inc.) were performed using the oleic acid of the Example 1. Four group consisting of 10 mice or rats was administrated orally with 100 mg/kg, 250 mg/kg, 500 mg/kg and 1000 mg/kg of test sample or solvents (0.2[…], i.p.) respectively and observed for 2 weeks.
(§2) The acute toxicity tests on ICR mice and Sprague-Dawley rats were performed using the extract of the Example 1. Four group consisting of 10 mice or rats was administrated intraperitoneally with 25 mg/kg, 50 mg/kg, 100 mg/kg and 200 mg/kg of test sample or solvents (0.2[…], i.p.), respectively and observed for 24 hours.

The test system of another series is Sprague-Dawley rats. In words: Acute toxicity test on Sprague-Dawley rats. The series is classed as in vivo. Here is the method:
as §1, §2

Where [2] appears, read: intraperitoneally 25, 50, 100 and 200 mg/kg, observed for 24 hours.
Where [3] appears, read: orally 100, 250, 500 and 1000 mg/kg, observed for 2 weeks.

For `CCCCCCCC/C=C\CCCCCCCC(=O)O` [oleic acid, Cis-9-octadecenoic acid], the “staining area with TTC (white) versus control group” value in series [1] (1 mg/kg, 10 mg/kg, 100 mg/kg, 2 h MCA occlusion, 24 hours after reperfusion, FIG. 1) is recorded as “smaller staining area with TTC (white) due to little damage of neuronal cell than control group”. For the same compound, the “protective effect on neuronal cell death compared with control group” value in series [1] (group C: 10 mg/kg) was 32.9%; in series [1] (group D: 100 mg/kg), 64.9%. For the same compound, the “treatment-related effects on mortality, clinical signs, body weight changes and gross findings” value in the series with ICR mice (setting [2]), in the series on ICR mice (setting [3]), in the series on Sprague-Dawley rats (setting [2]) and with Sprague-Dawley rats (setting [3]) was “no treatment-related effects” throughout.
